The values that follow come from patent US8471005B2 (Cephalon, Inc., priority 2008, dated 2013).

The target in assay [1] is T1, ALK (Homo sapiens, UniProt Q9UM73).
T1 construct: host or cells: baculovirus expression system
The experiment in a line: ALK Kinase Assay (ELISA/TRF, PLC-γ substrate). It counts as biochemical. The conditions noted are these: ALK kinase inhibition, 1 μM ATP; read-out: ALK Potency. The procedure, abridged:
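First, plates are coated with substrate (phospholipase C-γ, 10 μg/mL, TBS). Next, 30 ng/ml ALK initiates phosphorylation for 15 min at 37° C. Then Eu-N1 PT66 antibody is added for detection, and a nonlinear dose-response fit of percent inhibition yields IC50.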
For orientation: In an ELISA, binding on a coated surface is turned into a signal by an enzyme label.

For assay [2], the target named is T2, JAK2 (Homo sapiens, UniProt O60674).
T2 construct: host or cells: baculovirus expression system
T2 sequence (O60674 whole entry): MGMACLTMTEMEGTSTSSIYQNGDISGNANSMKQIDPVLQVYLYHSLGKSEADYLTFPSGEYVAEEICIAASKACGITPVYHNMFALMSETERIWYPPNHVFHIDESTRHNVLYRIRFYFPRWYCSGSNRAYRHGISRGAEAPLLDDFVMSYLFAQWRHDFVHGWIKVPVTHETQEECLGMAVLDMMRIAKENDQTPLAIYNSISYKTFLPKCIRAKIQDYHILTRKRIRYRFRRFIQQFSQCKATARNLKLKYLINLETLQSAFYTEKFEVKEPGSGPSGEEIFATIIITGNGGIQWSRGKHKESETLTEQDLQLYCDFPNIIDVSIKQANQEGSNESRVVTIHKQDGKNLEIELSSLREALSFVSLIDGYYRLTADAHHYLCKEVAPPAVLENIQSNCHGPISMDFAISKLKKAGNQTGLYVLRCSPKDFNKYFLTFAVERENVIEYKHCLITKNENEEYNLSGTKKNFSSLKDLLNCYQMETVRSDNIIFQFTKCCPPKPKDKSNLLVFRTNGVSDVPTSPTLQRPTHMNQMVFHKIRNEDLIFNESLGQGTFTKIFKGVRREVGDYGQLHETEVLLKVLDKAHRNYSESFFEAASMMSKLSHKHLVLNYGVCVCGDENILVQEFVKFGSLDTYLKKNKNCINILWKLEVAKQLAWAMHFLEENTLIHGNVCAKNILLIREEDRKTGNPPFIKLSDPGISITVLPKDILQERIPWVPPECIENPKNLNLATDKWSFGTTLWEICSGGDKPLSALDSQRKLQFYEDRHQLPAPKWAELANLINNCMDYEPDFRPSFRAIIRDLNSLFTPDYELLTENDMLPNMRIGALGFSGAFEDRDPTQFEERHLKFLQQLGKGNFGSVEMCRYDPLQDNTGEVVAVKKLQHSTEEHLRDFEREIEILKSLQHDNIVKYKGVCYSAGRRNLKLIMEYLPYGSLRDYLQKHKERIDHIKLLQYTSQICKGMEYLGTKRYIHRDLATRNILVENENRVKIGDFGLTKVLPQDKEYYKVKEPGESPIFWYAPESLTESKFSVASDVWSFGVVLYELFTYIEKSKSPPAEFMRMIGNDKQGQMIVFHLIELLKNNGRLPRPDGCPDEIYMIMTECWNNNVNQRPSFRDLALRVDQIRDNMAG
Briefly: Recombinant Human JAK2 Kinase Assay (TRF). The conditions noted are these: JAK2 kinase inhibition, 0.2 μM ATP; read-out: JAK2 Potency. It counts as biochemical. The procedure, abridged:
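Baculovirus-expressed JAK2 (15 ng/ml) phosphorylated a biotinylated 15-mer peptide captured on Neutravidin, in 20 mM HEPES pH 7.2, 0.2 μM ATP, 1 mM MnCl2, 0.1% BSA, 2.5% DMSO final, 20 min at room temperature. Phosphoproduct detected by time-resolved fluorescence with Eu-N1-labelled PY100 antibody.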

T1 sequence (Q9UM73 19-1620): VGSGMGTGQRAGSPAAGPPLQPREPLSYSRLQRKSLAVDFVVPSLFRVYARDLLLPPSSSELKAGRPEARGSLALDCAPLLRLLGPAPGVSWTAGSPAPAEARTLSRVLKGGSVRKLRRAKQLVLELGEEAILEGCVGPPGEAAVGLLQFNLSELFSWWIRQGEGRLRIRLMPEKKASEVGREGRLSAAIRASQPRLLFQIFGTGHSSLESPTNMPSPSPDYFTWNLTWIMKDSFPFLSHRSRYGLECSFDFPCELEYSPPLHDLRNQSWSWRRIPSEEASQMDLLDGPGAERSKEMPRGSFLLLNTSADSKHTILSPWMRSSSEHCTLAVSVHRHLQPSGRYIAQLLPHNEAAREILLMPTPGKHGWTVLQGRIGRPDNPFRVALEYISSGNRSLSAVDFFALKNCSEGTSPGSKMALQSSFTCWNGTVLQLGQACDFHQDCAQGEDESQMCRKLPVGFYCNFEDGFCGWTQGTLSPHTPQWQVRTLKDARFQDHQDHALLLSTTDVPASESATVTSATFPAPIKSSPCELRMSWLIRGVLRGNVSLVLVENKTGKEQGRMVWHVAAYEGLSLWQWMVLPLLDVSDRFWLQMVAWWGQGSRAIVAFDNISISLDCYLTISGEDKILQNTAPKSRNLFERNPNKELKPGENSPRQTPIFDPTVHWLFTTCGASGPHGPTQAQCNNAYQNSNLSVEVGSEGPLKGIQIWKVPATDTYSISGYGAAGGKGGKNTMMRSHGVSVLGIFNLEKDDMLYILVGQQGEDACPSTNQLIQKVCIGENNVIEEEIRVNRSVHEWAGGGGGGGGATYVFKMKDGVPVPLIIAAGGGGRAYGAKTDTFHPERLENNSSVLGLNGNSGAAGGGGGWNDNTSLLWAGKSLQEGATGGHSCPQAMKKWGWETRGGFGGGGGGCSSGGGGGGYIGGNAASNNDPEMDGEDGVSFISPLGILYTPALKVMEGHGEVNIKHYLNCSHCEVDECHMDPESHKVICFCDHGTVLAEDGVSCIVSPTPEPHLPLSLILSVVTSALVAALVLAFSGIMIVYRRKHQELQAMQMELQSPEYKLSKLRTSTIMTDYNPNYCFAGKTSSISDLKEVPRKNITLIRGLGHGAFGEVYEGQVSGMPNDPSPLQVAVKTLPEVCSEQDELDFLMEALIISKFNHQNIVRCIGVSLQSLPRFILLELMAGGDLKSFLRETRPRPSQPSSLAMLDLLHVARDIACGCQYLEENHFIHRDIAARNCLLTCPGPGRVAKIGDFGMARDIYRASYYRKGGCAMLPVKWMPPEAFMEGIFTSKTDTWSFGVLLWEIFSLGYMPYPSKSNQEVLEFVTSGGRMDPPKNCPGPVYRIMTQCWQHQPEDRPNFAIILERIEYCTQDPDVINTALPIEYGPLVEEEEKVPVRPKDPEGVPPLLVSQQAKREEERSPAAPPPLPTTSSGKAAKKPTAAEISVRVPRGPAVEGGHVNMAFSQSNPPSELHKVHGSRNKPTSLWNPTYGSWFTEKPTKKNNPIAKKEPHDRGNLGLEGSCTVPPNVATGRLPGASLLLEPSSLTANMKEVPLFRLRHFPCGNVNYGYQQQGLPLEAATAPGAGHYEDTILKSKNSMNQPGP

Regarding `CN1CCN(c2ccc(Nc3ncc4ccc(-c5ccc(CNCCS(C)(=O)=O)o5)n4n3)cc2)CC1` [Example 1200, (7-{5-[(2-Methanesulfonyl-ethylamino)-methyl]-furan-2-yl}-pyrrolo[2,1-f][1,2,4]triazin-2-yl)-[4-(4-methyl-piperazin-1-yl)-phenyl]-amine], the IC50 in assay [1] is 100 to 1000 nM; in assay [2], less than 100 nM.
`Cn1cc(-c2ccc3cnc(Nc4ccc5c(c4)CCC(N4CCOCC4)CC5)nn23)cn1` (centres unmarked) [Example 1201, [7-(1-Methyl-1H-pyrazol-4-yl)-pyrrolo[2,1-f][1,2,4]triazin-2-yl]-(7-morpholin-4-yl-6,7,8,9-tetrahydro-5H-benzocyclohepten-2-yl)-amine]: the IC50 in assay [1] was 100 to 1000 nM; in assay [2], less than 100 nM.
For `COc1ccccc1-c1ccc2cnc(Nc3ccc(N4CCOCC4)cn3)nn12` [Example 1202, [7-(2-Methoxy-phenyl)-pyrrolo[2,1-f][1,2,4]triazin-2-yl]-(5-morpholin-4-yl-pyridin-2-yl)-amine], in that order: 1000 to 10000 nM and less than 100 nM.
For `CN1CCN(c2ccc(Nc3ncc4ccc(-c5ccc(C=O)cc5)n4n3)cc2)CC1` [Example 1203, 4-{2-[4-(4-Methyl-piperazin-1-yl)-phenylamino]-pyrrolo[2,1-f][1,2,4]triazin-7-yl}-benzaldehyde], in that order: 100 to 1000 nM and less than 100 nM.
Turning to `CCN(CC)C1CCN(c2ccc(Nc3ncc4ccc(-c5ccccc5N(C)S(C)(=O)=O)n4n3)cc2)CC1` [Example 1204, N-(2-{2-[4-(4-Diethylamino-piperidin-1-yl)-phenylamino]-pyrrolo[2,1-f][1,2,4]triazin-7-yl}-phenyl)-N-methyl-methanesulfonamide], the IC50 in assay [1] and in assay [2] was less than 100 nM each time.
Turning to `CCN(CC)C1CCN(c2ccc(Nc3ncc4ccc(-c5cccc(NS(=O)(=O)C(C)(C)C)c5)n4n3)cc2)CC1` [Example 1205, 2-Methyl-propane-2-sulfonic acid (3-{2-[4-(4-diethylamino-piperidin-1-yl)-phenylamino]-pyrrolo[2,1-f][1,2,4]triazin-7-yl}-phenyl)-amide], the IC50 in assay [1] is 100 to 1000 nM; in assay [2], less than 100 nM.
On to `CCN(CC)C1CCN(c2ccc(Nc3ncc4ccc(-c5ccc(OC)nc5)n4n3)cc2)CC1` [Example 1206, [4-(4-Diethylamino-piperidin-1-yl)-phenyl]-[7-(6-methoxy-pyridin-3-yl)-pyrrolo[2,1-f][1,2,4]triazin-2-yl]-amine], for which the IC50 in assay [1] is 100 to 1000 nM; in assay [2], less than 100 nM.
The like results for `CCN(CC)C1CCN(c2ccc(Nc3ncc4ccc(-c5cnn(C)c5)n4n3)cc2)CC1` [Example 1207, [4-(4-Diethylamino-piperidin-1-yl)-phenyl]-[7-(1-methyl-1H-pyrazol-4-yl)-pyrrolo[2,1-f][1,2,4]triazin-2-yl]-amine] were, in that order, 100 to 1000 nM and less than 100 nM.
For the molecule `CN1CCN(c2ccc(Nc3ncc4ccc(-c5ccc(CNCCS(C)(=O)=O)cc5)n4n3)cc2)CC1` [Example 1208, (7-{4-[(2-Methanesulfonyl-ethylamino)-methyl]-phenyl}-pyrrolo[2,1-f][1,2,4]triazin-2-yl)-[4-(4-methyl-piperazin-1-yl)-phenyl]-amine], the IC50 is 100 to 1000 nM in assay [1] and less than 100 nM in assay [2].
As to `CS(=O)(=O)CCNCc1cccc(-c2ccc3cnc(Nc4ccc(N5CCOCC5)cc4)nn23)c1` [Example 1209, (7-{3-[(2-Methanesulfonyl-ethylamino)-methyl]-phenyl}-pyrrolo[2,1-f][1,2,4]triazin-2-yl)-(4-morpholin-4-yl-phenyl)-amine], the IC50 was 100 to 1000 nM in assay [1] and less than 100 nM in assay [2].
For `COc1ccncc1-c1ccc2cnc(Nc3ccc(N4CCN(C)CC4)cc3)nn12` [Example 1210, [7-(4-Methoxy-pyridin-3-yl)-pyrrolo[2,1-f][1,2,4]triazin-2-yl]-[4-(4-methyl-piperazin-1-yl)-phenyl]-amine], in that order: 100 to 1000 nM and less than 100 nM.
For `COc1ccncc1-c1ccc2cnc(Nc3ccc(N4CCOCC4)cc3)nn12` [Example 1211, [7-(4-Methoxy-pyridin-3-yl)-pyrrolo[2,1-f][1,2,4]triazin-2-yl]-(4-morpholin-4-yl-phenyl)-amine], in that order: 1000 to 10000 nM and less than 100 nM.
For `CN1CCN(CCn2cc(Nc3ncc4ccc(-c5ccccc5N(C)S(C)(=O)=O)n4n3)cn2)CC1` [Example 1212, N-Methyl-N-[2-(2-{1-[2-(4-methyl-piperazin-1-yl)-ethyl]-1H-pyrazol-4-ylamino}-pyrrolo[2,1-f][1,2,4]triazin-7-yl)-phenyl]-methanesulfonamide], in that order: 100 to 1000 nM and less than 100 nM.
`CN1CCN(CCn2cc(Nc3ncc4ccc(-c5cnn(C)c5)n4n3)cn2)CC1` [Example 1213, {1-[2-(4-Methyl-piperazin-1-yl)-ethyl]-1H-pyrazol-4-yl}-[7-(1-methyl-1H-pyrazol-4-yl)-pyrrolo[2,1-f][1,2,4]triazin-2-yl]-amine]: the IC50 in assay [1] is 100 to 1000 nM; in assay [2], less than 100 nM.
As to `COc1ccc(-c2ccc3cnc(Nc4ccc(CN5CCN(C)CC5)cc4)nn23)cn1` [Example 1214, [7-(6-Methoxy-pyridin-3-yl)-pyrrolo[2,1-f][1,2,4]triazin-2-yl]-[4-(4-methyl-piperazin-1-ylmethyl)-phenyl]-amine], the IC50 is 100 to 1000 nM in assay [1] and less than 100 nM in assay [2].
For `CN1CCN(c2ccc(Nc3ncc4ccc(-c5cnn(C)c5)n4n3)cc2F)CC1` [Example 1215, [3-Fluoro-4-(4-methyl-piperazin-1-yl)-phenyl]-[7-(1-methyl-1H-pyrazol-4-yl)-pyrrolo[2,1-f][1,2,4]triazin-2-yl]-amine], the results for the IC50 in assay [1] and in assay [2] were 100 to 1000 nM and less than 100 nM, respectively.
For `CN1CCN(c2ccc(Nc3ncc4ccc(-c5cnccc5NS(C)(=O)=O)n4n3)cc2)CC1` [Example 1218, N-(3-{2-[4-(4-Methyl-piperazin-1-yl)-phenylamino]-pyrrolo[2,1-f][1,2,4]triazin-7-yl}-pyridin-4-yl)-methanesulfonamide], in that order: 1000 to 10000 nM and 100 to 1000 nM.
For `CS(=O)(=O)Nc1ccncc1-c1ccc2cnc(Nc3ccc(N4CCOCC4)cc3)nn12` [Example 1219, N-{3-[2-(4-Morpholin-4-yl-phenylamino)-pyrrolo[2,1-f][1,2,4]triazin-7-yl]-pyridin-4-yl}-methanesulfonamide], in that order: 1000 to 10000 nM and 100 to 1000 nM.
For `COc1cc(CN2CCOCC2)ccc1Nc1ncc2ccc(-c3ccccc3OC)n2n1` [Example 1220, (2-Methoxy-4-morpholin-4-ylmethyl-phenyl)-[7-(2-methoxy-phenyl)-pyrrolo[2,1-f][1,2,4]triazin-2-yl]-amine], in that order: less than 100 nM and 100 to 1000 nM.
With `COc1cc(CN2CCOCC2)ccc1Nc1ncc2ccc(-c3ccccc3N(C)S(C)(=O)=O)n2n1` [Example 1221, N-{2-[2-(2-Methoxy-4-morpholin-4-ylmethyl-phenylamino)-pyrrolo[2,1-f][1,2,4]triazin-7-yl]-phenyl}-N-methyl-methanesulfonamide], the IC50 is less than 100 nM in assay [1] and 1000 to 10000 nM in assay [2].
As to `COc1cc(CN2CCN(C(=O)OC(C)(C)C)CC2)ccc1Nc1ncc2ccc(-c3ccccc3N(C)S(C)(=O)=O)n2n1` [Example 1222, 4-(4-{7-[2-(Methanesulfonyl-methyl-amino)-phenyl]-pyrrolo[2,1-f][1,2,4]triazin-2-ylamino}-3-methoxy-benzyl)-piperazine-1-carboxylic acid tert-butyl ester], the IC50 in assay [1] is less than 100 nM; in assay [2] it was 1000 to 10000 nM.
For `COc1cc(CN2CCNCC2)ccc1Nc1ncc2ccc(-c3ccccc3N(C)S(C)(=O)=O)n2n1` [Example 1223, N-{2-[2-(2-Methoxy-4-piperazin-1-ylmethyl-phenylamino)-pyrrolo[2,1-f][1,2,4]triazin-7-yl]-phenyl}-N-methyl-methanesulfonamide], in that order: less than 100 nM and 1000 to 10000 nM.
The like results for `COc1cc(CN2CCN(C[C@H](C)O)CC2)ccc1Nc1ncc2ccc(-c3ccccc3N(C)S(C)(=O)=O)n2n1` [Example 1224, N-[2-(2-{4-[4-((S)-2-Hydroxy-propyl)-piperazin-1-ylmethyl]-2-methoxy-phenylamino}-pyrrolo[2,1-f][1,2,4]triazin-7-yl)-phenyl]-N-methyl-methanesulfonamide] were, in that order, less than 100 nM and 1000 to 10000 nM.
The like results for `COC[C@H](O)CN1CCN(Cc2ccc(Nc3ncc4ccc(-c5ccccc5N(C)S(C)(=O)=O)n4n3)c(OC)c2)CC1` [Example 1225, N-[2-(2-{4-[4-((R)-2-Hydroxy-3-methoxy-propyl)-piperazin-1-ylmethyl]-2-methoxy-phenylamino}-pyrrolo[2,1-f][1,2,4]triazin-7-yl)-phenyl]-N-methyl-methanesulfonamide] were, in that order, less than 100 nM and 1000 to 10000 nM.
In the case of `COc1cc(CN2CCN(C[C@H](C)O)CC2)ccc1Nc1ncc2ccc(-c3ccccc3OC)n2n1` [Example 1226, (S)-1-(4-{3-Methoxy-4-[7-(2-methoxy-phenyl)-pyrrolo[2,1-f][1,2,4]triazin-2-ylamino]-benzyl}-piperazin-1-yl)-propan-2-ol], the IC50 in assay [1] is less than 100 nM; in assay [2], 100 to 1000 nM.
